# Assay results taken from patent publication US20150118726A1, “Processes Using Antibiotic Alternatives In Bioethanol Production” (Buckman Laboratories International, Inc., priority 2010, published 2015).
# Legend:
# [1] = system: L. plantarum; test: Corn mash ethanol fermentation infected with L. plantarum, treated with nonoxidizing biocide; assay type: cell-based, Lactobacillus plantarum; details: based on experimental results
# Method: (§1) Experiments were conducted to evaluate the effectiveness of a nonoxidizing biocide as an antimicrobial agent for control of Lactobacillus infections in ethanol fermentation. The nonoxidizing biocide was BRONAM® 20 (20% 2,2-dibromo-3-nitrilopropionamide). The lactobacilli was L. plantarum. The yeast was Saccharomyces cereviseae. Corn mashes containing approximately 30% (w/w) dry solids were used.
# For slurry preparation, the moisture of ground corn was determined gravimetrically using a moisture balance by measuring the mass loss that occurred upon drying. The amount of corn, deionized (DI) water, and enzyme needed to prepare 160 g of corn slurry at a total dry solids concentration of 30% (w/w) for each replicate was determined. […]
# For fermentation, once the mash was cooled, the entire contents (approximately 160 g) of each Labomat beaker were transferred to a sterile 250-ml Erlenmeyer flask. The masses of the mash and flasks were recorded, and the mass of mash transferred to the fermentation flasks was calculated. […]
# The L. plantarum culture was prepared for inoculation by growing throughout the day in 100-ml of MRS broth. […] The initial concentration of the bacteria was determined by plating serial dilutions of the culture on MRS agar containing cycloheximide and incubating at 32° C. for 2 days before counting colonies. […]
# [2] = system: Saccharomyces cereviseae; test: Corn mash ethanol fermentation: effect of biocide on yeast / fermentation progress; assay type: cell-based, Saccharomyces cerevisiae
# Method: as §1
# A 0.2-g/ml suspension of yeast (Saccharomyces cerevisiae; Ethanol Red; Fermentis, Marcq-en-Baroeul, France) was prepared in a sterile 250-ml flask. This suspension was incubated and mixed for 20 minutes at 40° C. before inoculation into the fermentation flasks. Each fermentation flask was inoculated with 160 μl of the yeast suspension to attain an initial concentration of 10^7 yeast cells/ml. After the initial 1-hr incubation with bacteria, the flasks were inoculated with yeast and dosed with BRONAM® 20. […]
# The mass of each flask was recorded after all additions were made, and the sanitized fermentation traps were reinserted into each flask. The mass of each flask with the trap in place was also recorded. […] The mass of each flask with the traps in place were measured periodically throughout fermentation to estimate the rate of fermentation (the mass of the fermentation flasks decreases when carbon dioxide is lost by bubbling out of the fermentation traps). […]
# [3] = system: Lactobacillus fermentans; test: MRS broth test of biocide combinations (Kull synergism method); assay type: cell-based; details: 25% MRS broth, 37° C., 24 hours
# Method: Lactobacilli MRS broth (25% strength) was prepared and dispensed in 10 ml amounts into test tubes and autoclaved for 20 minutes at 121° C. The biocides were added to the test tubes in the desired concentrations, and then 100 microliters of an overnight broth of Lactobacillus fermentans were added to the respective test tubes and incubated at 37° C. for 24 hours.
# QA/Qa+QB/Qb is less than 1.
# Qa=Concentration of Compound A in parts per million, acting alone, which produced an endpoint; Qb=Concentration of Compound B in parts per million, acting alone, which produced an endpoint; QA=Concentration of Compound A in parts per million, in the mixture, which produced an endpoint; QB=Concentration of Compound B in parts per million, in the mixture, which produced an endpoint.
# When the sum of QA/Qa and QB/Qb is greater than one, antagonism is indicated and when the sum is equal to one, additivity is indicated. When the sum of this value is less than one, synergism exists.
# [4] = Persistence of DBNPA under fermentation tank conditions; assay type: physicochemical; details: under the conditions in the fermentation tank, based on laboratory work
# Method: Under the conditions in the fermentation tank, DBNPA is expected to last intact only about 1-2 hours, based on laboratory work. The stillage, i.e., fermented unevaporated product (post “beer tank”) of distillation, is centrifuged, and dried (e.g., about 1 hour at about 250-300° F.), then the mixture is pumped over to a final tank where it is called the DDGS. DDGS is about ⅓ mass of the starting raw material for corn. The chemistry of DBNPA is not expected to endure and survive the centrifugation and heat of drying prior to entering distillers dried grains with solubles (DDGS) stage. In the corn-to-ethanol process, for example, DBNPA is expected to degrade to carbon dioxide and water vapor, and, as such, would have low environmental impact. […] The application of DBNPA avoids the use of antibiotics, which can remain stable throughout the process. The use of DBNPA makes the use of antibiotics unnecessary. The use of DBNPA is more economical since the cost of antibiotics (as the only treatment widely employed) can be relatively high and costly to the fermentation. […]
compound,measurement,setting,value
"N#CC(Br)(Br)C(N)=O [2,2-dibromo-3-nitrilopropionamide]",effect on bacteria (lactobacilli),[1],kills the bacteria
same,effect on yeast involved in fermentation,[2],does not kill the yeast
same,"Qb, concentration of Compound B acting alone which produced an endpoint",[3]; Example 3,100 ppm
same,time DBNPA lasts intact,[4],1 to 2 h
"O=[N+]([O-])C(Br)(CO)CO [2-bromo-2-nitropropane-1,3-diol]","Qb, concentration of Compound B acting alone which produced an endpoint",[3]; Example 2,50 ppm
Nisin,"Qa, concentration of Compound A acting alone which produced an endpoint",[3]; Example 2,1.0 ppm
same,"Qa, concentration of Compound A acting alone which produced an endpoint",[3]; Example 3,1.0 ppm
